According to BindingDB's records for doi:10.1021/acs.jmedchem.1c00511 (2021):

Molecular target: Vitamin K-dependent protein C (Homo sapiens) (UniProt P04070)
Assay: Inhibition of human APC using pyroGlu-Pro-Arg-p-nitroaniline-HCl as substrate measured after 5 mins by plate reader analysis

Vitamin K-dependent protein C (Homo sapiens), sequence (P04070 whole entry, looked up): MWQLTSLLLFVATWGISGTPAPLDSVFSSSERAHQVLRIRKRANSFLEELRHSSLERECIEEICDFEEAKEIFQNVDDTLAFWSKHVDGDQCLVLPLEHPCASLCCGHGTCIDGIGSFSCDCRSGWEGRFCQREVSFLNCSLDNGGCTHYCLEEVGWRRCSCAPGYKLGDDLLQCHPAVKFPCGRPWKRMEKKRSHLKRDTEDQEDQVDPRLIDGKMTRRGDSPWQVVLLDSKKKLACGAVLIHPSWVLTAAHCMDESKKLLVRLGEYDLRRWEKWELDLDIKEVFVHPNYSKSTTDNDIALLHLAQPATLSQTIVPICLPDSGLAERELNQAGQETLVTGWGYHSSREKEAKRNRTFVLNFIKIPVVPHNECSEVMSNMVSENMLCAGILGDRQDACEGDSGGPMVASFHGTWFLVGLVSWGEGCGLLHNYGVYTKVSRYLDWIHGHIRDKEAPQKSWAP

- IC50: > 30 µM
SMILES: N#Cc1cccc(C(NCC2CC2)c2ccc(F)c(NC(=O)c3cc(C(F)(F)F)nn3-c3cccc(CN)c3)c2)c1 (single isomer, unassigned; (+)) [(+)-1-(3-(aminomethyl)phenyl)-N-(5-((3-cyanophenyl)(cyclopropyl-methylamino)methyl)-2-fluorophenyl)-3-(trifluoromethyl)-1H-pyrazole-5-carboxamide]
